# pIC50, pKi: −log10 of the molar value.
# What was measured:
# [1] = target: T1, Glucocorticoid receptor (Rattus norvegicus, UniProt P06536); experiment: Displacement of [3H]-dexamethasone from rat glucocorticoid receptor incubated overnight by liquid scintillation counting analysis
# T1 sequence (P06536 whole entry): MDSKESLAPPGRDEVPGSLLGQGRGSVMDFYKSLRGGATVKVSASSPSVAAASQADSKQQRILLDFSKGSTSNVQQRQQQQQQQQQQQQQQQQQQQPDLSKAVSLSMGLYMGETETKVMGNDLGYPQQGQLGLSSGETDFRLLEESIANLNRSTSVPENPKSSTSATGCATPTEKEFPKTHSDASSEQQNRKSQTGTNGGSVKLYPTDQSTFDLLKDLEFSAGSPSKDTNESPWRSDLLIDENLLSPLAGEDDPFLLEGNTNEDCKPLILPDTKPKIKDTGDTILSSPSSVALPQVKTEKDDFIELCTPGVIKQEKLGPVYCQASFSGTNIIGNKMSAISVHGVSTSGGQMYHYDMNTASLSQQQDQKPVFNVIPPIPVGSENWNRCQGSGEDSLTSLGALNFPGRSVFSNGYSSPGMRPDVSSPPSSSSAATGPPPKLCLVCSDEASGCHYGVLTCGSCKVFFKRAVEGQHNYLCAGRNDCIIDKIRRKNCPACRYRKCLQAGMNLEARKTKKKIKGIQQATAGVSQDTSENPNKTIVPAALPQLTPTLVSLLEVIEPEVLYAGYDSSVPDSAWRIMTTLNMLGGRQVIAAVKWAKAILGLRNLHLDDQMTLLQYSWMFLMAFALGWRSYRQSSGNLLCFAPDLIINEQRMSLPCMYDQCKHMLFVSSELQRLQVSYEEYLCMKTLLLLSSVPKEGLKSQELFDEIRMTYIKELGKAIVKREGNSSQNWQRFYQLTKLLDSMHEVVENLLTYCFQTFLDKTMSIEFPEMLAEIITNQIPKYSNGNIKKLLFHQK
# [2] = target: T2, Mineralocorticoid receptor (Homo sapiens, UniProt P08235); experiment: biochemical
# T2 sequence (P08235 whole entry): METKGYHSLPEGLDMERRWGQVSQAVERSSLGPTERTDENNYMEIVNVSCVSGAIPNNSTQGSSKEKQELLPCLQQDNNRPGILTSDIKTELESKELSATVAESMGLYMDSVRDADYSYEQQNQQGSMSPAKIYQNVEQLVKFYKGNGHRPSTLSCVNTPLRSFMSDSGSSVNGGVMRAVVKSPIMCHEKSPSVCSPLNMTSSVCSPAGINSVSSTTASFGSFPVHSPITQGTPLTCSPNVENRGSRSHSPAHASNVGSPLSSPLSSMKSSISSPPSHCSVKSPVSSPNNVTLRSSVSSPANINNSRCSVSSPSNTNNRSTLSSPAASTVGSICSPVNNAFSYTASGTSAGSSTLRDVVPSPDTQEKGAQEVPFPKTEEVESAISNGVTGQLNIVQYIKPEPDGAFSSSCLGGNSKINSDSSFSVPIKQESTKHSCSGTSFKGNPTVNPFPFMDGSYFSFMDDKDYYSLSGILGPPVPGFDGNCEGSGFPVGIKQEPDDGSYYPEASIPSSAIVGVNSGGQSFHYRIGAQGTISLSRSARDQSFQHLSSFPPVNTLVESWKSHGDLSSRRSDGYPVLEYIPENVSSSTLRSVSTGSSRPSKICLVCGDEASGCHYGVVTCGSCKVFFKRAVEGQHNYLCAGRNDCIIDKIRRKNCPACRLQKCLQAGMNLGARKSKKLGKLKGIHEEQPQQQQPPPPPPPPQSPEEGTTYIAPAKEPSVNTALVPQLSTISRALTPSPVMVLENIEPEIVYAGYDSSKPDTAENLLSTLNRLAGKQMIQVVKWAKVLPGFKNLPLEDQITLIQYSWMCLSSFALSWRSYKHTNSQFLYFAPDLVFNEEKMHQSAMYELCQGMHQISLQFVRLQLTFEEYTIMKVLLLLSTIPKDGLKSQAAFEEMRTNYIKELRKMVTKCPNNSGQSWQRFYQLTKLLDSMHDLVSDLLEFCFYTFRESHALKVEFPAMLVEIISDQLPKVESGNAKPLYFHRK
# Description: Displacement of [3H]-aldosterone from recombinant human mineralocorticoid receptor expressed in baculovirus infected insect cells incubated overnight by liquid scintillation counting analysis
# [3] = target: T3, Mineralocorticoid receptor (Rattus norvegicus, UniProt P22199)
# T3 sequence (P22199 whole entry): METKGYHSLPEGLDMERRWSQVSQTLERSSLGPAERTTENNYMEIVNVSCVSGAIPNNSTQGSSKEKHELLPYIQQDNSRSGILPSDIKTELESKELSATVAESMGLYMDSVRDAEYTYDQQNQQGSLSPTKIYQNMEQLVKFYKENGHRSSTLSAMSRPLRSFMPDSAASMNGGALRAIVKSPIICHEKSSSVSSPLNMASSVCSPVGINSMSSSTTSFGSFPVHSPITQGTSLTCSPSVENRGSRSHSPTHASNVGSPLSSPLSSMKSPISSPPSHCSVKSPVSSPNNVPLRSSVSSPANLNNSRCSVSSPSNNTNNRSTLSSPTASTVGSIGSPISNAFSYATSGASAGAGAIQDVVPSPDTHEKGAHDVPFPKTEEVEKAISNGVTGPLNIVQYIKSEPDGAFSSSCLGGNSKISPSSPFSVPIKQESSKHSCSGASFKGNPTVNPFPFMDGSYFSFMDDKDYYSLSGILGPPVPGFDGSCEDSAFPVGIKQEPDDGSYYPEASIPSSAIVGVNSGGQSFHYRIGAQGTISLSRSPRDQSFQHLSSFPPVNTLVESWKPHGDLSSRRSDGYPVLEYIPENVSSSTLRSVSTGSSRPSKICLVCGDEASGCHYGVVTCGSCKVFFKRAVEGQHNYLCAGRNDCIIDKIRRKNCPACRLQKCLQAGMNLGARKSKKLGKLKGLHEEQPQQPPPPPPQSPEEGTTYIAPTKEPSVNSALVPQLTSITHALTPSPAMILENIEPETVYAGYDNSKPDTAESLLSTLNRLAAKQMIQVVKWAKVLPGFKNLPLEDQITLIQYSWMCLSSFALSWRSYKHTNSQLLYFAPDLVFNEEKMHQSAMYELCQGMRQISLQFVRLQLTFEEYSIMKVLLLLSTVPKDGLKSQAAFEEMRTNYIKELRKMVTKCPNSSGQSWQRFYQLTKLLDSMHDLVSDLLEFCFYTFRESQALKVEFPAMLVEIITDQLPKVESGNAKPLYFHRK
# Description: Displacement of [3H]-aldosterone from rat mineralocorticoid receptor incubated overnight by liquid scintillation counting analysis
# [4] = target: T4, Mineralocorticoid receptor (Homo sapiens) (UniProt P08235); experiment: Antagonist activity at human wild-type mineralocorticoid receptor expressed in CHO-K1 cells assessed as inhibition of aldosterone-induced transcriptional activity incubated for 24 hrs in presence of 1 nM aldosterone by Steady-Glo reagent based reporter gene assay relative to control; type: cell-based; parameters: scale not given: the % may be the effect or the level left; details: filed as antagonist
# T4 sequence (whole entry): T2 sequence (P08235 whole entry)
# [5] = target: T5, Glucocorticoid receptor (Homo sapiens, UniProt P04150); experiment: biochemical
# T5 sequence (P04150 whole entry): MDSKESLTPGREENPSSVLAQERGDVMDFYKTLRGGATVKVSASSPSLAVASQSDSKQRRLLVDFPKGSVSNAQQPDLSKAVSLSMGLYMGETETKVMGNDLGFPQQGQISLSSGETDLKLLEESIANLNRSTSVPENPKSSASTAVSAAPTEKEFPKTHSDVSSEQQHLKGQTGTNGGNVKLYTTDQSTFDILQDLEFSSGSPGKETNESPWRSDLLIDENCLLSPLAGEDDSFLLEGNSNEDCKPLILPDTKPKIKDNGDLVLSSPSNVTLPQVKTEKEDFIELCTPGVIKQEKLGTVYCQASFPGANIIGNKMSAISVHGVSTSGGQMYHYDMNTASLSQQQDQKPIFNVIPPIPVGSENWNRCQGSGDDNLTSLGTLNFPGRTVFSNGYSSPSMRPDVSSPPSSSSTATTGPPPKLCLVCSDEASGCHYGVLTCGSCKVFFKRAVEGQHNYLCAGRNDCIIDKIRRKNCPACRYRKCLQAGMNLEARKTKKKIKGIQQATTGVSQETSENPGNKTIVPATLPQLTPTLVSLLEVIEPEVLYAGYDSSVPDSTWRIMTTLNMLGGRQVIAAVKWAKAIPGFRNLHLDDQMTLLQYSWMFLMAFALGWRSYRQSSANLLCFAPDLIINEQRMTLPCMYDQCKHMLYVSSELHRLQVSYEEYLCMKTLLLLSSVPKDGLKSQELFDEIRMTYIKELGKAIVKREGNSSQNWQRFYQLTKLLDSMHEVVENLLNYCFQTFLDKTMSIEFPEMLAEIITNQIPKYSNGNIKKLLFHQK
# Description: Displacement of [3H]-dexamethasone from recombinant full length human glucocorticoid receptor expressed in baculovirus infected insect cells incubated overnight by liquid scintillation counting analysis
# [6] = tested on: CHO-K1; experiment: Antagonist activity at human mineralocorticoid receptor S810L mutant expressed in CHO-K1 cells assessed as inhibition of aldosterone-induced transcriptional activity at 300 nM incubated for 24 hrs in presence of aldosterone at 0.5 nM by reporter gene assay relative to control; type: cell-based; parameters: scale not given: the % may be the effect or the level left; details: filed as antagonist
pKi [1],pKi [2],pKi [3],Activity [4] [%],pIC50 [5],Structure (SMILES),Activity [6] [%]
4.71,,4.92,,,CC(C)(c1ccccc1)c1cccc(NS(C)(=O)=O)c1,
< 4.00,,< 4.00,,,CS(=O)(=O)Nc1ccc(Nc2ccccc2)cc1,
4.36,,,,,CC1(C)CN(c2ccc(F)cc2)c2ccc(NS(C)(=O)=O)cc2O1,
4.42,5.72,5.42,,,CCS(=O)(=O)Nc1ccc(C(C)(C)c2ccccc2)cc1,
,,,98.3,5.22,CC(=O)S[C@@H]1CC2=CC(=O)CC[C@]2(C)[C@H]2CC[C@@]3(C)[C@@H](CC[C@@]34CCC(=O)O4)[C@H]12 [SPIRONOLACTONE],58.5
< 4.00,,< 4.00,,,CC(C)(c1ccccc1)c1ccc(S(N)(=O)=O)cc1,
< 4.00,,5.76,,,CS(=O)(=O)Nc1ccc2c(c1)OCC(=O)N2c1ccc(F)cc1,
4.35,6.22,5.81,,,CCN(c1ccccc1)c1ccc(NS(C)(=O)=O)cc1,
4.38,,,,,CS(=O)(=O)Nc1ccc(N(C(=O)c2ccccc2)c2ccc(F)cc2)cc1,
4.40,6.13,5.71,,,CC(C)(c1ccccc1)c1ccc(NS(C)(=O)=O)cc1,
4.60,,5.25,,,CC(=O)c1ccc(N(Cc2ccccc2)c2ccc(NS(C)(=O)=O)cc2)cc1,
4.54,,5.16,,,CN(C)S(=O)(=O)Nc1ccc(C(C)(C)c2ccccc2)cc1,

# Continued, molecule first:
Structure (SMILES),pKi [1],pKi [2],pKi [3],Activity [4] [%],pIC50 [5],Activity [6] [%]
CS(=O)(=O)Nc1ccc(N(Cc2ccccc2)c2ccccc2)cc1,4.54,6.83,6.45,,,
CN(c1ccccc1)c1ccc(NS(C)(=O)=O)cc1,4.33,6.13,6.07,,,
CS(=O)(=O)Nc1ccc2c(c1)OC(c1ccccc1)C(=O)N2c1ccc(F)cc1 (centres undefined),4.26,6.47,6.60,,,
CS(=O)(=O)Nc1ccc2c(c1)OC1(CCC1)C(=O)N2c1ccc(F)cc1,< 4.00,6.82,6.20,,,
CS(=O)(=O)Nc1ccc2c(c1)OC1(CC1)C(=O)N2c1ccc(F)cc1,< 4.00,6.09,6.26,,,
CC1Oc2cc(NS(C)(=O)=O)ccc2N(c2ccc(F)cc2)C1=O (centres undefined),3.87,6.80,6.70,,,
CC(=O)Nc1ccc(C(C)(C)c2ccccc2)cc1,< 4.00,,< 4.00,,,
CC(C)(c1ccccc1)c1ccc(NS(=O)(=O)C(F)(F)F)cc1,< 4.00,,< 4.00,,,
CS(=O)(=O)Nc1ccc(N(C(=O)c2ccccc2)c2ccccc2)cc1,4.65,5.90,5.91,,,
CNS(=O)(=O)c1ccc(C(C)(C)c2ccccc2)cc1,< 4.00,5.86,5.37,,,
